# Results: ChEMBL document CHEMBL4613255, “Tridiscorhabdin and Didiscorhabdin, the First Discorhabdin Oligomers Linked with a Direct C-N Bridge from the Sponge Latrunculia biformis Collected from the Deep Sea in Antarctica” (J Nat Prod, 2020)
# Experiments:
# HCT-116 = test: Cytotoxicity against human HCT116 cells assessed as reduction in cell viability after 24 hrs by fluorescence based assay; format: functional; conditions: HCT-116, 24 h
# HaCaT = test: Cytotoxicity against human HaCaT cells assessed as reduction in cell viability after 24 hrs by fluorescence based assay
Compound,IC50 (HCT-116) [µM],IC50 (HaCaT) [µM]
O=C1C2=C3C4=[N+](CCc5c[nH]c1c54)[C@@H]1C(=O)C=C4S[C@H](C[C@]43[C@H]1O)N2,0.94,
O=C1C=C(S[C@@H]2[C@H]3C(=O)C=C4S[C@H]5C[C@@]42C2=C(N5)C(=O)c4[nH]cc5c4C2=[N+]3CC5)[C@@]2(C=CNC3=C2c2nccc4cn([C@H]5[C@H]6C(=O)C=C7S[C@H]8C[C@]75C5=C(N8)C(=O)c7[nH]cc8c7C5=[N+]6CC8)c(c24)C3=O)C=C1Br,0.31,0.92
